Source: patent US20240124412A1, “IKAROS ZINC FINGER FAMILY DEGRADERS AND USES THEREOF” (Gilead Sciences, Inc., priority 2021, published 2024)

How the values were obtained:
[1] = biological target: T1, IKZF2 (Homo sapiens, UniProt Q96SW2+Q9UKS7); assay: HiBiT protein tagging assay, in vitro IKZF2 degradation (HEK293); format: cell-based; settings: HEK293, 18-24 hr incubation, normalized to DMSO control; for Dmax: HEK293, HiBiT assay, read-out: IKZF2 Dmax (maximum degradation at the highest concentration tested); for DC50: HiBiT assay, read-out: IKZF2 EC50
T1 construct: expressed in transfected cells
Description: (§1) In vitro degradation of IKZF1 and IKZF2 was measured using HiBiT protein tagging and detection technology (Promega).
(§2) HiBiT technology (Promega) was used to develop the quantitative assays to measure the cellular IKZFs level by tagging an 11 amino acid HiBit peptides VSGWRLFKKIS (SEQ ID NO:1) to the protein of interest. Reporter plasmids were generated by fusing a linker sequence (GSSGGSSG; SEQ ID NO:2) followed by the HiBiT tag at the C terminus of IKZF1 and IKZF2. The fusion fragments were subsequently cloned into pcDNA5 pcDNA™5/FRT/TO plasmids (Thermo Fisher, cat #V652020) downstream of the Tetracycline operator. The resulting plasmids were co-transfected with pOG44 Flp-Recombinase Expression Vector (Thermo Fisher, cat #V600520) into Flp-In™ T-REx HEK293 line (Thermo Fisher, cat #R78077) and a stable cell pool was selected by adding 100 μg/ml of Hygromycin (Thermo Fisher, cat #10687010). The reporter cell enabled Tet-On inducible reporter expression from a single copy of the integrated gene.
(§3) On Day 1, Cells were grown to ˜80% confluency in TC medium (DMEM Glutamax (Gibco10569), 10% Tet free FBS (Takara 631106), and PenStrep Glutamin (Gibco 10378)) in tissue culture flasks. Doxycycline was then added to a final concentration of 1 μg/ml to induce reporter expression at 37° C. overnight.
(§4) On Day 2, 125 nL of serially-diluted solution of testing compounds were dispensed into 384-well white solid assay plates via ECHO acoustic liquid handler. Cells were lifted by 0.25% Trypsin (Gibco 25200) then pelleted by centrifugation (Beckman Avanti J-E) at 500×g for 5 min. Cell pellets were resuspended in TC medium at the concentration of 3e5/mL and 25 μL of cell suspension were added into each well of compound-spotted plates. The plates were returned to a 37° C. incubator overnight (18-24 hr).
(§5) On Day 3, assay plates were removed from the TC incubator and 25 μL of Nano-Glo lytic detection system (Promega, cat #N3030) was added to each well. Plates were incubated at r.t. for 3 min with shaking, and luminescence was read using an Envision reader (Perkin Elmer).
(§6) All raw data was normalized to DMSO control (final concentration: 0.5%) wells as POC and plotted out for EC50 and Dmax (Maximum degradation at the highest concentration tested in the assay).

[2] = biological target: T2, IKZF1 (Homo sapiens, UniProt Q13422+Q96SW2); assay: HiBiT protein tagging assay, in vitro IKZF1 degradation (HEK293); format: cell-based; settings: HEK293, 18-24 hr incubation, normalized to DMSO control; for Dmax: read-out: IKZF1 Dmax (maximum degradation at the highest concentration tested); for DC50: read-out: IKZF1 EC50
T2 construct: expressed in transfected cells
Description: as §1, §2, §3, §4, §5, §6

T1 sequence (Q9UKS7 1-500 isoform Q9UKS7-2): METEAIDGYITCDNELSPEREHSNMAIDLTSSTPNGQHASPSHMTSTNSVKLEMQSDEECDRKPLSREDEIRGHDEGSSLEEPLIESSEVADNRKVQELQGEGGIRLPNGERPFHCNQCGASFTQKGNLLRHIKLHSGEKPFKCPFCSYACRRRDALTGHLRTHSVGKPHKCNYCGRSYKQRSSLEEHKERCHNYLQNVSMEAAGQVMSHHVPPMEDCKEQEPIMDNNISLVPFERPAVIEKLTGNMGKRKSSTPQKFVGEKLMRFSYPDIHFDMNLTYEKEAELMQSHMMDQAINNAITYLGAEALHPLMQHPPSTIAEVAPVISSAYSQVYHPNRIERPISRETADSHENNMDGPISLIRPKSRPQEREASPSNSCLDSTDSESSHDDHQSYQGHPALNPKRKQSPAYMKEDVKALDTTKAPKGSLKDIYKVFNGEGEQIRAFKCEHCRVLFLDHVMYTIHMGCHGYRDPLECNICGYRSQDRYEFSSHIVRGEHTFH
T1 sequence (Q96SW2 whole entry): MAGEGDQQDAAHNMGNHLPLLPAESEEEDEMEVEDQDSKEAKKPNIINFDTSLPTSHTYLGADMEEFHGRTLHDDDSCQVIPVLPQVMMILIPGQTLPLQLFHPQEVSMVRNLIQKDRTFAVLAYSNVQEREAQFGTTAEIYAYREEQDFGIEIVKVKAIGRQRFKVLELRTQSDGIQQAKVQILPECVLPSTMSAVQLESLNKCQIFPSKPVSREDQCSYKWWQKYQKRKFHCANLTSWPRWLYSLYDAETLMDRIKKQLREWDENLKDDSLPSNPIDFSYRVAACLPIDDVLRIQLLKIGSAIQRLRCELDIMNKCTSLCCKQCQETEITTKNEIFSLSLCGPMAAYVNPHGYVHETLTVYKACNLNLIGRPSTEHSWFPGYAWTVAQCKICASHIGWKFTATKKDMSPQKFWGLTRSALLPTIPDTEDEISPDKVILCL
T1 sequence (Q16531 whole entry partner): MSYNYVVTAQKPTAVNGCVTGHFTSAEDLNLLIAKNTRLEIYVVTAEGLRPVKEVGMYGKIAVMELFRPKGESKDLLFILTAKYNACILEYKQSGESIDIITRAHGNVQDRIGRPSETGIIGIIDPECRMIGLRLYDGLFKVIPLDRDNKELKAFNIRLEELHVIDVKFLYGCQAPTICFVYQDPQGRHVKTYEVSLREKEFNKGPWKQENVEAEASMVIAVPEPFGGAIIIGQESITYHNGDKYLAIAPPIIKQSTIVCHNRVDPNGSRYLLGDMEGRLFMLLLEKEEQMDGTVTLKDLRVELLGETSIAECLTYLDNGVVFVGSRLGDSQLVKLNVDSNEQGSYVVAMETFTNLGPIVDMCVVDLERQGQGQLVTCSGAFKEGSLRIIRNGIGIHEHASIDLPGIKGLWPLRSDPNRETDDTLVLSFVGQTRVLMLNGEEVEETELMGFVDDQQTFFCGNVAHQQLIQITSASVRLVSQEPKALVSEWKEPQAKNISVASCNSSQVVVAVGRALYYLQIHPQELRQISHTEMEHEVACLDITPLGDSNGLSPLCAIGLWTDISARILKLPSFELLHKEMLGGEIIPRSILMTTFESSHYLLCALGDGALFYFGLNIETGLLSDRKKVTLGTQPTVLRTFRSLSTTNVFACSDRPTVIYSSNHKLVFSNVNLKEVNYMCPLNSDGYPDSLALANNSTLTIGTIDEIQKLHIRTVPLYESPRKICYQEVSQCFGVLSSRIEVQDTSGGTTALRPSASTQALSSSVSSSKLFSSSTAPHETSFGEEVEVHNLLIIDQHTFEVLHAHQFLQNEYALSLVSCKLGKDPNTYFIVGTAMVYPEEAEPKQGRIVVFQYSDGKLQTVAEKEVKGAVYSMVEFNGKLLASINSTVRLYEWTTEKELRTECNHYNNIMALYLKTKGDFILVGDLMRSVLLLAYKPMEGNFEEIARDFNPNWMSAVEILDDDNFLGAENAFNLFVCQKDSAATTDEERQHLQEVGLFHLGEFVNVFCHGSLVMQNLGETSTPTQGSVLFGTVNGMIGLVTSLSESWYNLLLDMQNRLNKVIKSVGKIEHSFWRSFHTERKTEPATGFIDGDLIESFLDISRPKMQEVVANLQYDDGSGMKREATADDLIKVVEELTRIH
T2 sequence (Q13422 whole entry): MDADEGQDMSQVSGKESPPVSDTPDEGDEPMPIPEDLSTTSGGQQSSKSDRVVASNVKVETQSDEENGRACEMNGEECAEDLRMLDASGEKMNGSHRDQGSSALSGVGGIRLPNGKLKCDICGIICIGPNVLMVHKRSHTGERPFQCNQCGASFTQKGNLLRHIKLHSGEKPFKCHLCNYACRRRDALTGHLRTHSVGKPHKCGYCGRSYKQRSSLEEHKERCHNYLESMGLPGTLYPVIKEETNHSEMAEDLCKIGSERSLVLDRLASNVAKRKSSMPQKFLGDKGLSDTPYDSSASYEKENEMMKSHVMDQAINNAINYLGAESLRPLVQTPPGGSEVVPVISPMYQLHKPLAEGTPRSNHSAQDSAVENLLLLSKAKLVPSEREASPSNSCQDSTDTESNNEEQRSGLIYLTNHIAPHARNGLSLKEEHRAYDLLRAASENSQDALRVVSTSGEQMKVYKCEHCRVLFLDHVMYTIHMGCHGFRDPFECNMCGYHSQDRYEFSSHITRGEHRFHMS
T2 sequence (Q96SW2 whole entry): as the sequence (Q96SW2 whole entry) above
T2 sequence (Q16531 whole entry partner): as the sequence (Q16531 whole entry partner) above

Row | Dmax [1] [%] | DC50 [1] [nM] | Dmax [2] [%] | DC50 [2] [nM] | SMILES
1 | 36 | 110 | 78 | 25 | O=C1CCC(N2Cc3cc(CNCC4CCCc5ccccc54)ccc3C2=O)C(=O)N1 (stereo not shown) [Example 22, 3-(1-oxo-5-((((1,2,3,4-tetrahydronaphthalen-1-yl)methyl)amino)methyl)isoindolin-2-yl)piperidine-2,6-dione]
2 | 49 | 210 | 86 | 36 | O=C1CCC(N2Cc3cc(CNCC4CCc5ccccc5C4)ccc3C2=O)C(=O)N1 (stereo not shown) [Example 23, 3-(1-oxo-5-((((1,2,3,4-tetrahydronaphthalen-2-yl)methyl)amino)methyl)isoindolin-2-yl)piperidine-2,6-dione]
3 | 62 | 2000 | 36 | 871 | O=C1CCC(N2Cc3cc(CN[C@@H]4CCCN(C(=O)c5ccccc5)C4)ccc3C2=O)C(=O)N1 (stereo partly drawn) [Example 24, 3-(5-((((R)-1-benzoylpiperidin-3-yl)amino)methyl)-1-oxoisoindolin-2-yl)piperidine-2,6-dione]
4 | 39 | 1800 | 38 | 84 | O=C1CCC(N2Cc3cc(CNC4Cc5ccccc5N(Cc5ccccc5)C4)ccc3C2=O)C(=O)N1 (stereo not shown) [Example 25, 3-(5-(((1-benzyl-1,2,3,4-tetrahydroquinolin-3-yl)amino)methyl)-1-oxoisoindolin-2-yl)piperidine-2,6-dione]
5 | 97 | 7 | 97 | 1 | O=C1CCC(N2Cc3cc(CN[C@@H]4CCCN(Cc5ccccc5Cl)C4)ccc3C2=O)C(=O)N1 (stereo partly drawn) [Example 26, 3-(5-((((R)-1-(2-chlorobenzyl)piperidin-3-yl)amino)methyl)-1-oxoisoindolin-2-yl)piperidine-2,6-dione]
6 | 93 | 41 | 94 | 9 | C[C@@H](c1ccccc1)N1CCC[C@@H](NCc2ccc3c(c2)CN(C2CCC(=O)NC2=O)C3=O)C1 (stereo partly drawn) [Example 27, 3-(1-oxo-5-((((R)-1-((S)-1-phenylethyl)piperidin-3-yl)amino)methyl)isoindolin-2-yl)piperidine-2,6-dione]
7 | 93 | 29 | 94 | 5 | C[C@H](c1ccccc1)N1CCC[C@@H](NCc2ccc3c(c2)CN(C2CCC(=O)NC2=O)C3=O)C1 (stereo partly drawn) [Example 28, 3-(1-oxo-5-((((R)-1-((R)-1-phenylethyl)piperidin-3-yl)amino)methyl)isoindolin-2-yl)piperidine-2,6-dione]
8 | 20 | 665 | 58 | 102 | O=C1CCC(N2Cc3cc(CN[C@@H]4CCCN(CCc5ccccc5)C4)ccc3C2=O)C(=O)N1 (stereo partly drawn) [Example 29, 3-(1-oxo-5-((((R)-1-phenethylpiperidin-3-yl)amino)methyl)isoindolin-2-yl)piperidine-2,6-dione]
9 | 36 | 208 | 44 | 90 | O=C1CCC(N2Cc3cc(CN[C@@H]4CCCN(c5ccccc5)C4)ccc3C2=O)C(=O)N1 (stereo partly drawn) [Example 30, 3-(1-oxo-5-((((R)-1-phenylpiperidin-3-yl)amino)methyl)isoindolin-2-yl)piperidine-2,6-dione]
10 | 83 | 40 | 97 | 3 | O=C1CCC(N2Cc3cc(CN[C@H]4CC[C@@H](c5ccccc5)CC4)ccc3C2=O)C(=O)N1 (stereo partly drawn) [Example 31, 3-(1-oxo-5-((((1,4-cis)-4-phenylcyclohexyl)amino)methyl)isoindolin-2-yl)piperidine-2,6-dione]
11 | 85 | 71 | 48 | 54 | O=C1CCC(N2Cc3cc(CN[C@H]4CC[C@H](c5ccccc5)CC4)ccc3C2=O)C(=O)N1 (stereo partly drawn) [Example 32, 3-(1-oxo-5-((((1,4-trans)-4-phenylcyclohexyl)amino)methyl)isoindolin-2-yl)piperidine-2,6-dione]
12 | 27 | 264 | 75 | 35 | O=C1CCC(N2Cc3cc(CNCc4ccccc4)ccc3C2=O)C(=O)N1 (stereo not shown) [Example 33, 3-(5-((benzylamino)methyl)-1-oxoisoindolin-2-yl)piperidine-2,6-dione]
13 | 70 | 657 | 20 | 384 | O=C1CCC(N2Cc3cc(CN[C@@H]4CCCC[C@@H]4CO)ccc3C2=O)C(=O)N1 (stereo partly drawn) [Example 34, 3-(5-((((1R,2S)-2-(hydroxymethyl)cyclohexyl)amino)methyl)-1-oxoisoindolin-2-yl)piperidine-2,6-dione]
14 | 88 | 111 | 85 | 28 | O=C1CCC(N2Cc3cc(CNC4CCN(c5ccccn5)CC4)ccc3C2=O)C(=O)N1 (stereo not shown) [Example 35, 3-(1-oxo-5-(((1-(pyridin-2-yl)piperidin-4-yl)amino)methyl)isoindolin-2-yl)piperidine-2,6-dione]
15 | 90 | 588 | 84 | 96 | O=C1CCC(N2Cc3cc(CNC4CCN(c5cccnc5)CC4)ccc3C2=O)C(=O)N1 (stereo not shown) [Example 36, 3-(1-oxo-5-(((1-(pyridin-3-yl)piperidin-4-yl)amino)methyl)isoindolin-2-yl)piperidine-2,6-dione]
16 | 76 | 1000 | 56 | 667 | O=C1CCC(N2Cc3cc(CNC4CCN(c5ccncc5)CC4)ccc3C2=O)C(=O)N1 (stereo not shown) [Example 37, 3-(1-oxo-5-(((1-(pyridin-4-yl)piperidin-4-yl)amino)methyl)isoindolin-2-yl)piperidine-2,6-dione]
17 | 21 | 3300 |  | > 10000 | O=C1CCC(N2Cc3cc(CN[C@H]4CCCC[C@@H]4O)ccc3C2=O)C(=O)N1 (stereo partly drawn) [Example 38, 3-(5-((((1S,2S)-2-hydroxycyclohexyl)amino)methyl)-1-oxoisoindolin-2-yl)piperidine-2,6-dione]
18 | 37 | 4100 |  | > 10000 | O=C1CCC(N2Cc3cc(CN[C@H]4CCCC[C@H]4CO)ccc3C2=O)C(=O)N1 (stereo partly drawn) [Example 39, 3-(5-((((1S,2R)-2-(hydroxymethyl)cyclohexyl)amino)methyl)-1-oxoisoindolin-2-yl)piperidine-2,6-dione]
19 | 38 | 1200 |  | > 10000 | O=C1CCC(N2Cc3cc(CN[C@@H]4CCCC[C@H]4O)ccc3C2=O)C(=O)N1 (stereo partly drawn) [Example 40, 3-(5-((((1R,2R)-2-hydroxycyclohexyl)amino)methyl)-1-oxoisoindolin-2-yl)piperidine-2,6-dione]
20 | 42 | 373 | 31 | 51 | O=C1CCC(N2Cc3cc(CNC4CCC4)ccc3C2=O)C(=O)N1 (stereo not shown) [Example 41]
21 | 65 | 193 | 30 | 85 | O=C1CCC(N2Cc3cc(CNC4CC5CCC4C5)ccc3C2=O)C(=O)N1 (stereo not drawn) [Example 42, 3-(5-((exo-bicyclo[2.2.1]heptan-2-ylamino)methyl)-1-oxoisoindolin-2-yl)piperidine-2,6-dione]
22 | 78 | 64 | 71 | 32 | O=C1CCC(N2Cc3cc(CN[C@H]4CCCc5ccccc54)ccc3C2=O)C(=O)N1 (stereo partly drawn) [Example 43, 3-(1-oxo-5-((((S)-1,2,3,4-tetrahydronaphthalen-1-yl)amino)methyl)isoindolin-2-yl)piperidine-2,6-dione]
23 | 32 | 240 | 72 | 38 | O=C1CCC(N2Cc3cc(CNCCc4ccccc4Cl)ccc3C2=O)C(=O)N1 (stereo not shown) [Example 44, 3-(5-(((2-chlorophenethyl)amino)methyl)-1-oxoisoindolin-2-yl)piperidine-2,6-dione]
24 | 84 | 182 | 93 | 30 | O=C1CCC(N2Cc3cc(CN[C@@H]4C[C@H](F)CN(Cc5ccccc5)C4)ccc3C2=O)C(=O)N1 (stereo partly shown) [Example 45]
25 | 76 | 141 | 36 | 275 | C[C@@H]1CCCC[C@@H]1NCc1ccc2c(c1)CN(C1CCC(=O)NC1=O)C2=O (stereo partly shown) [Example 46]
